Measurements from PubChem BioAssay AID1918998 (Molecular Pharmacology Branch, DTP, NCI, 2023).
pIC50: −log10 of the molar value.

System: 521955-158-R2-J5-PDC complex spheroid growth
Assay: Anticancer human tumor 521955-158-R2-J5-PDC patient-derived pancreatic carcinoma cell line growth inhibition [AhR]
Conditions: for pIC50: curve of first compound; for viability, T/C: stronger effect = lower value; active means viability on the fitted dose curve at most 10% of control; inactive means the rest
In short: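 Complex tumor spheroids co-cultured with HUVEC and human MSC stroma; AhR antagonists tested in combination with standard-of-care and investigational agents. Top concentration at or near clinical Cmax (else 10 microM), half-log dilutions; growth expressed as percent test/control.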

[1] = second compound 0.1 µM, first compound 0.0316 µM
[2] = second compound 0.1 µM, first compound 0.1 µM
[3] = second compound 0.1 µM, first compound 0.316 µM
[4] = second compound 0.1 µM, first compound 1 µM
[5] = second compound 0.316 µM, first compound 0.0316 µM
[6] = second compound 0.316 µM, first compound 0.1 µM
[7] = second compound 0.316 µM, first compound 0.316 µM
[8] = second compound 0.316 µM, first compound 1 µM
[9] = second compound 1 µM, first compound 0.0316 µM
[10] = second compound 1 µM, first compound 0.1 µM
[11] = second compound 1 µM, first compound 0.316 µM
[12] = second compound 1 µM, first compound 1 µM
[13] = second compound 3.16 µM, first compound 0.0316 µM
[14] = second compound 3.16 µM, first compound 0.1 µM
[15] = second compound 3.16 µM, first compound 0.316 µM
[16] = second compound 3.16 µM, first compound 1 µM
[17] = second compound 10 µM, first compound 0.0316 µM
[18] = second compound 10 µM, first compound 0.1 µM
[19] = second compound 10 µM, first compound 0.316 µM
[20] = second compound 10 µM, first compound 1 µM
[21] = second compound 0.1 µM, first compound 3.16 µM
[22] = second compound 0.1 µM, first compound 10 µM
[23] = second compound 0.316 µM, first compound 3.16 µM
[24] = second compound 0.316 µM, first compound 10 µM
[25] = second compound 1 µM, first compound 3.16 µM
[26] = second compound 1 µM, first compound 10 µM
[27] = second compound 3.16 µM, first compound 3.16 µM
[28] = second compound 3.16 µM, first compound 10 µM
[29] = second compound 10 µM, first compound 3.16 µM
[30] = second compound 10 µM, first compound 10 µM
[31] = second compound 0.1 µM, first compound 0.00949 µM
[32] = second compound 0.1 µM, first compound 0.03 µM
[33] = second compound 0.1 µM, first compound 0.0949 µM
[34] = second compound 0.1 µM, first compound 0.3 µM
[35] = second compound 0.316 µM, first compound 0.00949 µM
[36] = second compound 0.316 µM, first compound 0.03 µM
[37] = second compound 0.316 µM, first compound 0.0949 µM
[38] = second compound 0.316 µM, first compound 0.3 µM
[39] = second compound 1 µM, first compound 0.00949 µM
[40] = second compound 1 µM, first compound 0.03 µM
[41] = second compound 1 µM, first compound 0.0949 µM
[42] = second compound 1 µM, first compound 0.3 µM
[43] = second compound 3.16 µM, first compound 0.00949 µM
[44] = second compound 3.16 µM, first compound 0.03 µM
[45] = second compound 3.16 µM, first compound 0.0949 µM
[46] = second compound 3.16 µM, first compound 0.3 µM
[47] = second compound 10 µM, first compound 0.00949 µM
[48] = second compound 10 µM, first compound 0.03 µM
[49] = second compound 10 µM, first compound 0.0949 µM
[50] = second compound 10 µM, first compound 0.3 µM
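Wherever viability, T/C is given: spheroids mix tumor cells with HUVEC endothelium and human MSC stroma; luminescence taken as viability surrogate after a week of drug exposure.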

CC1COCCN1c1cc(-c2ccnn2C)c2ccnc(-c3ccn[nH]3)c2n1 (stereo not given) + Cc1cncc(-c2nc(NCCc3c[nH]c4ccccc34)c3ncn(C(C)C)c3n2)c1
7.05: pIC50 (second compound 10 µM)
inactive: viability, T/C (second compound 0.1 µM, first compound 0.00316 µM) 112% | viability, T/C (second compound 0.1 µM, first compound 0.01 µM) 109% | viability, T/C [1] 106% | viability, T/C [2] 55.6% | viability, T/C [3] 12.8% | viability, T/C [4] 16.2% | viability, T/C (second compound 0.316 µM, first compound 0.00316 µM) 113% | viability, T/C (second compound 0.316 µM, first compound 0.01 µM) 130% | viability, T/C [5] 117% | viability, T/C [6] 63.3% | viability, T/C [7] 12.4% | viability, T/C [8] 12.7% | viability, T/C (second compound 1 µM, first compound 0.00316 µM) 94.7% | viability, T/C (second compound 1 µM, first compound 0.01 µM) 123% | viability, T/C [9] 121% | viability, T/C [10] 41.6% | viability, T/C [11] 15.7% | viability, T/C [12] 13.1% | viability, T/C (second compound 3.16 µM, first compound 0.00316 µM) 176% | viability, T/C (second compound 3.16 µM, first compound 0.01 µM) 167% | viability, T/C [13] 145% | viability, T/C [14] 61.1% | viability, T/C [15] 13.6% | viability, T/C [16] 19.1% | viability, T/C (second compound 10 µM, first compound 0.00316 µM) 127% | viability, T/C (second compound 10 µM, first compound 0.01 µM) 134% | viability, T/C [17] 105% | viability, T/C [18] 45.2% | viability, T/C [19] 8.85%
6.87: pIC50 (second compound 0.316 µM)
7.06: pIC50 (second compound 1 µM)
6.88: pIC50 (second compound 3.16 µM)
6.94: pIC50 (second compound 0.1 µM)
active: viability, T/C [20] 12.9%

CC1COCCN1c1cc(C2(S(C)(=N)=O)CC2)nc(-c2ccnc3[nH]ccc23)n1 (stereo not given) + Cc1cncc(-c2nc(NCCc3c[nH]c4ccccc34)c3ncn(C(C)C)c3n2)c1
5.61: pIC50 (second compound 0.1 µM) | pIC50 (second compound 10 µM)
5.58: pIC50 (second compound 3.16 µM)
5.59: pIC50 (second compound 0.316 µM) | pIC50 (second compound 1 µM)
inactive: viability, T/C [1] 115% | viability, T/C [2] 108% | viability, T/C [3] 114% | viability, T/C [4] 107% | viability, T/C [21] 33.8% | viability, T/C [22] 15.5% | viability, T/C [5] 125% | viability, T/C [6] 131% | viability, T/C [7] 105% | viability, T/C [8] 118% | viability, T/C [23] 35.1% | viability, T/C [24] 14.4% | viability, T/C [9] 140% | viability, T/C [10] 138% | viability, T/C [11] 131% | viability, T/C [12] 128% | viability, T/C [25] 33.5% | viability, T/C [26] 15.5% | viability, T/C [13] 139% | viability, T/C [14] 142% | viability, T/C [15] 154% | viability, T/C [16] 128% | viability, T/C [27] 35.7% | viability, T/C [28] 14.5% | viability, T/C [17] 130% | viability, T/C [18] 132% | viability, T/C [19] 139% | viability, T/C [20] 111% | viability, T/C [29] 33.9% | viability, T/C [30] 14.3%

COc1ccc([C@@H](O)c2cc(-c3ncnc4cc(N5CCOCC5)ccc34)c(F)cc2Cl)nn1 + Cc1cncc(-c2nc(NCCc3c[nH]c4ccccc34)c3ncn(C(C)C)c3n2)c1
< 5.00: pIC50 (second compound 0.1 µM) | pIC50 (second compound 0.316 µM) | pIC50 (second compound 1 µM) | pIC50 (second compound 3.16 µM) | pIC50 (second compound 10 µM)
inactive: viability, T/C [1] 102% | viability, T/C [2] 102% | viability, T/C [3] 99.7% | viability, T/C [4] 78.1% | viability, T/C [21] 65.8% | viability, T/C [22] 50.8% | viability, T/C [5] 118% | viability, T/C [6] 116% | viability, T/C [7] 113% | viability, T/C [8] 85.1% | viability, T/C [23] 75.1% | viability, T/C [24] 54.4% | viability, T/C [9] 115% | viability, T/C [10] 127% | viability, T/C [11] 113% | viability, T/C [12] 104% | viability, T/C [25] 83.3% | viability, T/C [26] 61.6% | viability, T/C [13] 134% | viability, T/C [14] 153% | viability, T/C [15] 130% | viability, T/C [16] 111% | viability, T/C [27] 96.3% | viability, T/C [28] 65.9% | viability, T/C [17] 138% | viability, T/C [18] 131% | viability, T/C [19] 175% | viability, T/C [20] 114% | viability, T/C [29] 62.9% | viability, T/C [30] 46.6%

Nc1ncn(C2CC(O)C(CO)S2)c(=O)n1 (stereo not given) + Cc1cncc(-c2nc(NCCc3c[nH]c4ccccc34)c3ncn(C(C)C)c3n2)c1
inactive: viability, T/C (second compound 0.1 µM, first compound 0.000949 µM) 115% | viability, T/C (second compound 0.1 µM, first compound 0.003 µM) 113% | viability, T/C [31] 123% | viability, T/C [32] 105% | viability, T/C [33] 93.3% | viability, T/C [34] 97.8% | viability, T/C (second compound 0.316 µM, first compound 0.000949 µM) 112% | viability, T/C (second compound 0.316 µM, first compound 0.003 µM) 112% | viability, T/C [35] 117% | viability, T/C [36] 115% | viability, T/C [37] 99.5% | viability, T/C [38] 93.7% | viability, T/C (second compound 1 µM, first compound 0.000949 µM) 126% | viability, T/C (second compound 1 µM, first compound 0.003 µM) 161% | viability, T/C [39] 158% | viability, T/C [40] 125% | viability, T/C [41] 125% | viability, T/C [42] 99% | viability, T/C (second compound 3.16 µM, first compound 0.000949 µM) 146% | viability, T/C (second compound 3.16 µM, first compound 0.003 µM) 129% | viability, T/C [43] 122% | viability, T/C [44] 123% | viability, T/C [45] 118% | viability, T/C [46] 128% | viability, T/C (second compound 10 µM, first compound 0.000949 µM) 145% | viability, T/C (second compound 10 µM, first compound 0.003 µM) 143% | viability, T/C [47] 105% | viability, T/C [48] 142% | viability, T/C [49] 114% | viability, T/C [50] 121%
< 6.52: pIC50 (second compound 0.1 µM) | pIC50 (second compound 0.316 µM) | pIC50 (second compound 1 µM) | pIC50 (second compound 3.16 µM) | pIC50 (second compound 10 µM)

O=C(C=Cn1cnc(-c2cc(C(F)(F)F)cc(C(F)(F)F)c2)n1)NNc1cnccn1 + Cc1cncc(-c2nc(NCCc3c[nH]c4ccccc34)c3ncn(C(C)C)c3n2)c1
inactive: viability, T/C [31] 65.6% | viability, T/C [32] 59.7% | viability, T/C [33] 53.2% | viability, T/C [34] 51.5% | viability, T/C (second compound 0.1 µM, first compound 0.949 µM) 37.1% | viability, T/C (second compound 0.1 µM, first compound 3 µM) 26.3% | viability, T/C [35] 76.1% | viability, T/C [36] 58.9% | viability, T/C [37] 57.6% | viability, T/C [38] 49.3% | viability, T/C (second compound 0.316 µM, first compound 0.949 µM) 39.6% | viability, T/C (second compound 0.316 µM, first compound 3 µM) 29.1% | viability, T/C [39] 74.5% | viability, T/C [40] 70% | viability, T/C [41] 54.5% | viability, T/C [42] 49.4% | viability, T/C (second compound 1 µM, first compound 0.949 µM) 38.9% | viability, T/C (second compound 1 µM, first compound 3 µM) 24.9% | viability, T/C [43] 78.7% | viability, T/C [44] 59.1% | viability, T/C [45] 53.2% | viability, T/C [46] 36.8% | viability, T/C (second compound 3.16 µM, first compound 0.949 µM) 40.9% | viability, T/C (second compound 3.16 µM, first compound 3 µM) 23.8% | viability, T/C [47] 38.3% | viability, T/C [48] 35.9% | viability, T/C [49] 28.2% | viability, T/C [50] 24.7% | viability, T/C (second compound 10 µM, first compound 0.949 µM) 19.7% | viability, T/C (second compound 10 µM, first compound 3 µM) 19.8%
6.60: pIC50 (second compound 1 µM)
6.70: pIC50 (second compound 0.316 µM)
6.97: pIC50 (second compound 3.16 µM)
6.66: pIC50 (second compound 0.1 µM)
> 8.02: pIC50 (second compound 10 µM)
